Patent US8663679B2, “Compositions for improving breast health in women” (Abbott Laboratories, priority 2004, dated 2014)

How the values were obtained:
[1] = system: MCF-7 human breast adenocarcinoma cells; assay: Cell proliferation assay (ViaLight Plus, ATP); format: cell-based; details: MCF7, 72 hours
Experimental: (§1) MCF-7 human breast adenocarcinoma cells (ATCC) are maintained in Eagle's Minimal Essential Medium supplemented with 10% FBS (Gibco-BRL), 1% Penicillin-Streptomycin-Glutamine and 10 nM 17β Estradiol, (Sigma). MCF-10A cells, human fibrocystic mammary gland epithelial cells (ATCC) and HMEC, human mammary gland epithelial cells (Cambrex) are maintained in mammary epithelial complete growth medium (MEGM) containing the Bullet Kit (Cambrex Bio Sciences).
(§2) Cells are seeded on 24-well plates at 20-25×10^3 cells/well in 0.4-0.5 ml of their respective media. […] Cells with no treatment are the controls. Plates are incubated at 37° C. for 72 hours. Cell proliferation is measured using ViaLight Plus Cell Proliferation and Cytotoxicity BioAssay Kit by quantifying the amount of ATP released from the cells according to manufacture's protocol.
Cell culture plates are warmed up to room temperature for 5 minutes and 200 μl of cell lysis reagent is added to each well. After incubation at room temperature for 10 minutes with intermediate swirling of the plate, 100 μl of the sample from each well is loaded in triplicate in a white 96-well microtiter plate, Dynex Microlite 1+, for vialight assay. The ATP monitoring reagent (AMR) is reconstituted in assay buffer and allowed to equilibrate for 15 minutes at room temperature.
(§3) The luminometer and associated WinGlow software program are set up and primed with reconstituted AMR. The plate is placed in the luminometer and 100 μl of reconstituted AMR is dispensed per well. The luminometer is programmed to take one second integrated reading of each appropriate well. The plates are incubated for 2 minutes at room temperature in the luminometer and one second integrated reading of each appropriate well is initiated.
Average RLU (relative luciferase unit) values for each set of triplicate wells, using Winglow software and Microsoft Excel, is calculated and graphed. Effects of various treatments are calculated by plotting the percent of inhibition of cell proliferation versus the concentration of treatment. Percent inhibition of cell proliferation is calculated using the formula: […]

[2] = system: HMEC, human mammary gland epithelial cells; details: 72 hours
Experimental: as §1
as §2, with “protocol. […]” for “protocol.”
as §3, with “The plate is placed in the luminometer and 100 μl of reconstituted AMR is dispensed per well.” left out
Average RLU (relative luciferase unit) values for each set of triplicate wells, using Winglow software and Microsoft Excel, is calculated and graphed. […]

[3] = system: MCF-10A cells, human fibrocystic mammary gland epithelial cells; assay: Cell proliferation assay (ViaLight Plus, ATP); format: cell-based; details: MCF10A, 72 hours
Experimental: Cells with no treatment are the controls. Plates are incubated at 37° C. for 72 hours.

MCF10A cells = details: GLA 0, 50, 100 μM, 48 hours
Experimental: (§4) Cells are grown in T75 flasks up to 70-80% confluence before being treated with desired fatty acids conjugated with BSA for 48 hours at 37° C. at various concentrations (0, 50, 100 μM). After incubation, the cells are trypsinized from the flask and the cell suspensions are pooled and collected in 50 ml tubes. Each cell type and each treatment is done in duplicate. Cell suspensions are then centrifuged at 1000 rpm for 10 minutes each. Supernatants are discarded and the pellets suspended in phosphate buffered saline. The cells are washed twice with 10 ml of PBS (Phosphate buffer saline) at each step and centrifuged. The pellets are re-suspended in 10 ml of PBS and counted and the cell numbers are normalized for the experiment. The cell suspension is centrifuged again and the pellets stored at −80° C. until lipid extraction is performed.
(§5) Briefly, each cell pellet from a 50 ml culture is vortexed with 6 ml of methanol, followed by the addition of 12 ml of chloroform and 100 μg of tridecanoin (as internal standard). The mixture is incubated at 4° C. overnight. The chloroform layer is extracted and filtered through a Whatman filter with one gram of anhydrous sodium sulfate to remove particulates and residual water. Organic solvents are evaporated to dryness at 40° C. under a stream of nitrogen. […]

MCF7 cells = details: MCF7, GLA 0, 50, 100 μM, 48 hours
Experimental: as §4, §5

thyroid follicular cells = details: well known; cited from earlier work

Row | Structure (SMILES) | anti-proliferative activity on breast cancer cells [1] | anti-proliferative activity on normal breast cells [2] | anti-proliferative activity on fibrocystic cells [3] | production of arachidonic acid (MCF10A cells) | production of arachidonic acid (MCF7 cells) | proliferation of thyroid follicular cells (thyroid follicular cells)
1 | CCCCC/C=C\C/C=C\C/C=C\CCCCC(=O)O [GLA, (Z,Z,Z)-6,9,12-octadecatrienoic acid] | no effect | no effect | significant anti-proliferative activity | increased production of arachidonic acid | increased production of arachidonic acid | –
2 | [I-].[K+] [Iodine, potassium iodide] | does not show any anti-proliferative effect | – | does not show any anti-proliferative effect | – | – | inhibits proliferation
3 | O=[Se](=O)([O-])[O-].[Na+].[Na+] [Selenium, sodium selenate] | anti-proliferative activity | no relative effect | anti-proliferative activity | – | – | –
4 | CCCCC/C=C\C/C=C\C/C=C\CC(I)C1CCCC(=O)O1 (stereo not drawn) [iodo-arachidonate, 6-iodo-5-hydroxy-eicosatrienoic acid-delta-lactone] | significant inhibitory effect | – | – | – | – | –
